We go through 13 compounds from patent US8232401B2 (Japan Tobacco Inc., priority 2002, dated 2012).

This test addresses T1, HIV integrase (Human immunodeficiency virus type 1 group M subtype B, UniProt P12497, F1332H).
T1 construct: HIV integrase full length gene; made in house; host or cells: Escherichia coli BL21(DE3)
The test is described as follows: Determination of enzyme (HIV integrase) inhibitory activity (strand transfer, microtiter plate, absorbance at 450 nm). The format is biochemical, HIV (Human Immunodeficiency Virus (type 1)). The note with it: recombinant HIV integrase (F185H) expressed in E. coli; donor DNA on streptavidin plate, digoxigenin target DNA; 37° C. The procedure:
The following explains evaluation methods of the HIV integrase inhibitory activity of the compound of the present invention.
(i) Construction of Recombinant Integrase Gene Expression System
(ii) Production and Purification of Integrase Protein
Escherichia coli recombinant BL21(DE3) transformed with plasmid pET21a-IN-F185H obtained in (i) was shake cultured at 30° C. in a liquid medium containing ampicillin. When the culture reached the logarithmic growth phase, isopropyl-β-D-thiogalactopyranoside was added to promote expression of integrase gene. The culture was continued for 3 hrs to promote accumulation of the integrase protein. The recombinant E. coli was collected in pellets by centrifugal separation and preserved at −80° C.
The E. coli was suspended in Lysis buffer (20 mM HEPES (pH 7.5), 5 mM DTT, 10 mM CHAPS, 10% glycerol) containing 1M sodium chloride and subjected to repeat pressurization and depressurization for rupture, and centrifugal separation at 4° C., 40,000×g, 60 min to recover a water-soluble fraction (supernatant). This was diluted 10-fold with Lysis buffer free of sodium chloride, mixed with SP-Sepharose (Pharmacia Corporation) and stirred at 4° C. for 60 min to allow adsorption of integrase protein to the resin. The resin was washed with Lysis buffer containing 100 mM sodium chloride and the integrase protein was eluted with Lysis buffer containing 1M sodium chloride.
The eluted integrase protein solution was applied to a Superdex 75 (Pharmacia Corporation) column for gel filtration. The protein was eluted with Lysis buffer containing 1M sodium chloride.
The obtained fractions of the integrate protein were collected and preserved at −80° C.
(iii) Preparation of DNA Solution
The following DNA synthesized by Greiner was dissolved in TE buffer (10 mM Tris-hydrochloric acid (pH 8.0), 1 mM EDTA) and mixed with donor DNA, target DNA, each complementary strand (+ and − strands) to 1 μM. The mixture was heated at 95° C. for 5 min, 80° C. for 10 min, 70° C. for 10 min, 60° C. for 10 min, 50° C. for 10 min and 40° C. for 10 min and preserved at 25° C. to give a double stranded DNA, which was used for the test. Donor DNA (− strand having biotin attached to the 5′ terminal)
(iv) Determination of Enzyme (HIV Integrase) Inhibitory activity
The donor DNA was diluted with TE buffer to 10 nM, of which 50 μl was added to each well of streptavidin-coated microtiter plate (Roche) and allowed to adsorb at 37° C. for 60 min. The DNA was washed with phosphate buffer (Dulbecco PBS, Sanko Junyaku Co., Ltd.) containing 0.1% Tween 20 and phosphate buffer. Then, a reaction mixture (70 μl) having the following composition, a test substance (10 μl) diluted with the reaction mixture and […] integrase protein (10 μl) were added to each well and reacted at 37° C. for 60 min.
Then, 50 nM target DNA (1.0 μl) was added, reacted at 37° C. for 10 min and washed with phosphate buffer containing 0.1% Tween 20 to stop the reaction.
Then, 100 mU/ml peroxidase labeled anti-digoxigenin antibody solution (Roche, 100 μl) was added, and the mixture was reacted at 37° C. for 60 min, followed by washing with phosphate buffer containing 0.1% Tween 20.
A peroxidase color solution (Bio Rad, 100 μl) was added and allowed to react at room temperature for 4 min. The color reaction was stopped by adding 1N sulfuric acid (100 μl). The absorbance at 450 nm was measured.
The HIV integrase inhibitory activity (IC50) of the compound of the present invention was calculated from the inhibition rate according to the following formula. […] Evaluation of Antiviral Activity
A word on the IC50: it is the point on the concentration scale where inhibition reaches its midpoint. As for `O=C(O)c1cn(CCCCc2ccccc2)c2ccc(Cc3cccc(Cl)c3Cl)cc2c1=O` [Example 1-19, 6-(2,3-Dichlorobenzyl)-1-(4-phenylbutyl)-4-oxo-1,4-dihydroquinoline-3-carboxylic acid], the IC50 turned out to be 81 nM.

As to `COCCn1cc(C(=O)O)c(=O)c2cc(Cc3cccc(Cl)c3Cl)ccc21` [Example 1-26, 6-(2,3-Dichlorobenzyl)-1-(2-methoxyethyl)-4-oxo-1,4-dihydroquinoline-3-carboxylic acid], the IC50 was 180 nM.

`CC[C@@H](CO)n1cc(C(=O)O)c(=O)c2cc(Cc3cccc(Cl)c3F)c(SC)cc21` [Example 4-29, (S)-6-(3-Chloro-2-fluorobenzyl)-1-[1-(hydroxymethyl)propyl]-7-methylsulfanyl-4-oxo-1,4-dihydroquinoline-3-carboxylic acid]: the IC50 amounted to 4.5 nM.

Take `COc1cc(Cc2cccc(Cl)c2F)cc2c(=O)c(C(=O)O)cn([C@@H](C)CO)c12` [Example 3-56, (S)-6-(3-Chloro-2-fluorobenzyl)-1-(2-hydroxy-1-methylethyl)-8-methoxy-4-oxo-1,4-dihydroquinoline-3-carboxylic acid]: the IC50 stood at 12 nM.

With `CC(C)(C)NS(=O)(=O)Cn1cc(C(=O)O)c(=O)c2cc(Cc3cccc(Cl)c3Cl)ccc21` [Example 1-70, 1-tert-Butylsulfamoylmethyl-6-(2,3-dichlorobenzyl)-4-oxo-1,4-dihydroquinoline-3-carboxylic acid], the IC50 was 82 nM.

In the case of `Cc1c(Cl)cccc1Cc1ccc2c(c1)c(=O)c(C(=O)O)cn2CCO` [Example 3-2, 6-(3-Chloro-2-methylbenzyl)-1-(2-hydroxyethyl)-4-oxo-1,4-dihydroquinoline-3-carboxylic acid], the IC50 was 200 nM.

As to `CN(C)c1cc2c(cc1Cc1cccc(Cl)c1F)c(=O)c(C(=O)O)cn2CCO` [Example 3-62, 6-(3-Chloro-2-fluorobenzyl)-7-dimethylamino-1-(2-hydroxyethyl)-4-oxo-1,4-dihydroquinoline-3-carboxylic acid], the IC50 is 27 nM.

On to `COc1cc(Cc2cccc(Cl)c2F)cc2c(=O)c(C(=O)O)cn(CCO)c12` [Example 3-34, 6-(3-Chloro-2-fluorobenzyl)-1-(2-hydroxyethyl)-8-methoxy-4-oxo-1,4-dihydroquinoline-3-carboxylic acid], for which the IC50 came out at 11 nM.

For `O=C(O)c1cn(CCF)c2ccc(Cc3cccc(Cl)c3Cl)cc2c1=O` [Example 1-44, 6-(2,3-Dichlorobenzyl)-1-(2-fluoroethyl)-4-oxo-1,4-dihydroquinoline-3-carboxylic acid], the IC50 turned out to be 51 nM.

On to `CS(=O)(=O)Cn1cc(C(=O)O)c(=O)c2cc(Cc3cccc(Cl)c3Cl)ccc21` [Example 1-69, 6-(2,3-Dichlorobenzyl)-1-methanesulfonylmethyl-4-oxo-1,4-dihydroquinoline-3-carboxylic acid], for which the half-inhibitory concentration (IC50) is 74 nM.

Consider `CC[C@H](C)[C@@H](CO)n1cc(C(=O)O)c(=O)c2cc(Cc3cccc(Cl)c3F)c(OC(C)C)cc21` [Example 4-39, 6-(3-Chloro-2-fluorobenzyl)-1-((1S,2S)-1-hydroxymethyl-2-methylbutyl)-7-isopropyloxy-4-oxo-1,4-dihydroquinoline-3-carboxylic acid], for which the IC50 came out at 4.1 nM.

In the case of `COc1cc2c(cc1Cc1cccc(Cl)c1F)c(=O)c(C(=O)O)cn2CCO` [Example 3-4, 6-(3-Chloro-2-fluorobenzyl)-1-(2-hydroxyethyl)-7-methoxy-4-oxo-1,4-dihydroquinoline-3-carboxylic acid], the half-maximal inhibitory concentration (IC50) amounted to 11 nM.

Turning to `O=C(O)c1cn(CCO)c2cc(OCCCO)c(Cc3cccc(Cl)c3F)cc2c1=O` [Example 3-77, 6-(3-Chloro-2-fluorobenzyl)-1-(2-hydroxyethyl)-1-7-(3-hydroxypropyloxy)-4-oxo-1,4-dihydroquinoline-3-carboxylic acid], the IC50 was found to be 8.9 nM.
